Test results published in PubChem BioAssay AID256 (DTP/NCI, 2004).
Several values for one entry are separate records, joined by “and”; a condition that tells them apart may be missing. Equal values may be shown once. Toxic doses and inconclusive results are not listed.

System: CD2F1 mice, L1210 leukemia ip, survival T/C
Assay: NCI In Vivo Anticancer Drug Screen. Data for tumor model L1210 Leukemia (intraperitoneal) in CD2F1 (CDF1) mice
Details: endpoint: mean survival time, higher = longer survival
Procedure, shortened: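 Each value reflects a quotient of treated over vehicle control outcomes in mice with a transplanted tumor.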

[1] = dose: 25.0 mg/kg/injection, schedule: Q04DX002 (ip), vehicle: saline
[2] = dose: 50.0 mg/kg/injection, schedule: Q04DX002 (ip), vehicle: saline
[3] = dose: 100.0 mg/kg/injection, schedule: Q04DX002 (ip), vehicle: saline
[4] = dose: 25.0 mg/kg/injection, schedule: Q01DX009 (ip), vehicle: saline with Tween-80
[5] = dose: 50.0 mg/kg/injection, schedule: Q01DX009 (ip), vehicle: saline with Tween-80
[6] = dose: 100.0 mg/kg/injection, schedule: Q01DX009 (ip), vehicle: saline with Tween-80
[7] = dose: 200.0 mg/kg/injection, schedule: Q01DX009 (ip), vehicle: saline with Tween-80
[8] = dose: 400.0 mg/kg/injection, schedule: Q01DX009 (ip), vehicle: saline with Tween-80
[9] = dose: 12.5 mg/kg/injection, schedule: Q01DX009 (ip), vehicle: saline with Tween-80
[10] = dose: 100.0 mg/kg/injection, schedule: Q04DX003 (ip), vehicle: saline with Tween-80
[11] = dose: 200.0 mg/kg/injection, schedule: Q04DX003 (ip), vehicle: saline with Tween-80
[12] = dose: 400.0 mg/kg/injection, schedule: Q04DX003 (ip), vehicle: saline with Tween-80
[13] = dose: 100.0 mg/kg/injection, schedule: Q01DX001 (ip), vehicle: saline with Tween-80
[14] = dose: 200.0 mg/kg/injection, schedule: Q01DX001 (ip), vehicle: saline with Tween-80
[15] = dose: 400.0 mg/kg/injection, schedule: Q01DX001 (ip), vehicle: saline with Tween-80
[16] = dose: 100.0 mg/kg/injection, schedule: Q01DX001 (ip), vehicle: Klucel (hydroxypropylcellulose) (HPC)
[17] = dose: 200.0 mg/kg/injection, schedule: Q01DX001 (ip), vehicle: Klucel (hydroxypropylcellulose) (HPC)

NC(CCl)=NCCc1ccsc1
T/C [1]: 95 % of control | T/C [2]: 106 % of control | T/C [3]: 98 % of control and 112 % of control

Nc1nc(N)c2nc(CNc3ccc(C(=O)NC(CCC(=O)O)C(=O)O)cc3)cnc2n1 (stereo not given)
T/C (dose: 0.2 mg/kg/injection, schedule: Q01DX009 (ip), vehicle: alkali diluted with saline): 150 % of control | T/C (dose: 0.3 mg/kg/injection, schedule: Q01DX009 (ip), vehicle: alkali diluted with saline): 156 % of control | T/C (dose: 0.44 mg/kg/injection, schedule: Q01DX009 (ip), vehicle: alkali diluted with saline): 174 % of control | T/C (dose: 0.67 mg/kg/injection, schedule: Q01DX009 (ip), vehicle: alkali diluted with saline): 166 % of control | T/C (dose: 0.7 mg/kg/injection, schedule: Q01DX009 (ip), vehicle: alkali diluted with saline): 118 % of control | T/C (dose: 1.0 mg/kg/injection, schedule: Q01DX009 (ip), vehicle: alkali diluted with saline): 114 % of control | T/C (dose: 1.1 mg/kg/injection, schedule: Q01DX009 (ip), vehicle: alkali diluted with saline): 96 % of control | T/C (dose: 1.5 mg/kg/injection, schedule: Q01DX009 (ip), vehicle: alkali diluted with saline): 104 % of control | T/C (dose: 1.7 mg/kg/injection, schedule: Q01DX009 (ip), vehicle: alkali diluted with saline): 86 % of control

CCOC(=O)c1ccc(Nc2nnc(-c3c(OC)cc(OC)cc3OC)s2)cc1
T/C [4]: 88 % of control | T/C [5]: 88 % of control | T/C [6]: 89 % of control | T/C [7]: 88 % of control | T/C [8]: 88 % of control

O=C1C2CCCC3CCCC(C(=O)N1NC1CCCCC1)C32 (stereo not given)
T/C [9]: 96 % of control | T/C [4]: 89 % of control | T/C [5]: 86 % of control | T/C [6]: 88 % of control

CC1(c2ccc(O)cc2)CCC(C(C)(C)c2ccc(O)cc2)CC1 (stereo not given)
T/C [10]: 92 % of control | T/C [11]: 90 % of control | T/C [12]: 90 % of control

CCCCC(CCCC)CS(=O)[O-].[C-]#[O+].[C-]#[O+].[Fe+6].[c-]1[c-][c-][cH-][c-]1
T/C [1]: 102 % of control | T/C [2]: 87 % of control | T/C [3]: 106 % of control

Cc1cc(NC(=O)CCc2ccc(N3C(N)=NC(N)=NC3(C)C)cc2)ccc1S(=O)(=O)F
T/C (dose: 0.8 mg/kg/injection, schedule: Q01DX015 (ip), vehicle: water): 112 % of control | T/C (dose: 4.0 mg/kg/injection, schedule: Q01DX015 (ip), vehicle: water): 98 % of control | T/C (dose: 20.0 mg/kg/injection, schedule: Q01DX015 (ip), vehicle: water): 101 % of control | T/C (dose: 100.0 mg/kg/injection, schedule: Q01DX015 (ip), vehicle: water): 110 % of control | T/C (dose: 500.0 mg/kg/injection, schedule: Q01DX015 (ip), vehicle: water): 113 % of control

O=c1[nH]cc(Cc2cccc3ccccc23)c(=O)[nH]1
T/C [13]: 92 % of control | T/C [14]: 94 % of control | T/C [15]: 86 % of control

Cn1c(=O)c2[nH]c(Cl)nc2n(C)c1=O
T/C (dose: 12.5 mg/kg/injection, schedule: Q01DX005 (ip), vehicle: water): 92 % of control | T/C (dose: 25.0 mg/kg/injection, schedule: Q01DX005 (ip), vehicle: water): 93 % of control | T/C (dose: 50.0 mg/kg/injection, schedule: Q01DX005 (ip), vehicle: water): 103 % of control | T/C (dose: 100.0 mg/kg/injection, schedule: Q01DX005 (ip), vehicle: water): 87 % of control

NNc1nc(=O)[nH]nc1Sc1ccccc1
T/C (dose: 75.0 mg/kg/injection, schedule: Q01DX001 (ip), vehicle: saline): 96 % of control | T/C (dose: 150.0 mg/kg/injection, schedule: Q01DX001 (ip), vehicle: saline): 101 % of control | T/C (dose: 300.0 mg/kg/injection, schedule: Q01DX001 (ip), vehicle: saline): 97 % of control

CC(=O)OCC1(OC2OC(CNC(=O)N(C)N=O)C(OC(C)=O)C(OC(C)=O)C2OC(C)=O)OC(CNC(=O)N(C)N=O)C(OC(C)=O)C1OC(C)=O (stereo not given)
T/C (dose: 12.5 mg/kg/injection, schedule: Q01DX009 (ip), vehicle: other): 102 % of control | T/C (dose: 25.0 mg/kg/injection, schedule: Q01DX009 (ip), vehicle: other): 102 % of control | T/C (dose: 50.0 mg/kg/injection, schedule: Q01DX009 (ip), vehicle: other): 109 % of control | T/C (dose: 100.0 mg/kg/injection, schedule: Q01DX009 (ip), vehicle: other): 105 % of control | T/C (dose: 200.0 mg/kg/injection, schedule: Q01DX009 (ip), vehicle: other): 119 % of control

COc1ccc2c(c1)N(CC(C)C[N+](C)(C)CCCCCCCCCCCCCCCC[N+](C)(C)CC(C)CN1c3ccccc3Sc3ccc(OC)cc31)c1ccccc1S2 (stereo not given)
T/C (dose: 100.0 mg/kg/injection, schedule: Q04DX003 (ip), vehicle: saline): 91 % of control | T/C (dose: 200.0 mg/kg/injection, schedule: Q04DX003 (ip), vehicle: saline): 91 % of control

CCCCCC(=O)COCC
T/C [10]: 103 % of control | T/C [11]: 91 % of control | T/C [12]: 103 % of control

CC(=O)Nc1ccc([N+](=O)[O-])c2ccccc12
T/C (dose: 37.5 mg/kg/injection, schedule: Q04DX002 (ip), vehicle: saline with Tween-80): 101 % of control | T/C (dose: 75.0 mg/kg/injection, schedule: Q04DX002 (ip), vehicle: saline with Tween-80): 101 % of control | T/C (dose: 150.0 mg/kg/injection, schedule: Q04DX002 (ip), vehicle: saline with Tween-80): 104 % of control

O=C(COc1ccc(Cl)c(Cl)c1)NCc1cccc(Cl)c1
T/C [10]: 95 % of control | T/C [11]: 93 % of control | T/C [12]: 95 % of control

CCOC(=O)C1(C(=O)OCC)CCC2Nc3ccccc3C(=O)N21 (stereo not given)
T/C [16]: 108 % of control | T/C [17]: 108 % of control | T/C (dose: 400.0 mg/kg/injection, schedule: Q01DX001 (ip), vehicle: Klucel (hydroxypropylcellulose) (HPC)): 96 % of control

Nc1nc(N)c2nc3c(nc2n1)CCCC3
T/C [13]: 95 % of control | T/C [14]: 87 % of control | T/C [15]: 87 % of control

O=C(Nc1ccccc1)c1ccc(S(=O)(=O)F)cc1
T/C [6]: 101 % of control | T/C [7]: 106 % of control | T/C [8]: 106 % of control

O=C(O)C1C2C=CC(C2)C1C(=O)Nc1ccccc1 (stereo not given)
T/C [6]: 97 % of control | T/C [7]: 97 % of control | T/C [8]: 96 % of control

C=CCNc1n[nH]c(=S)s1
T/C [10]: 100 % of control | T/C [11]: 96 % of control | T/C [12]: 105 % of control

CN(C)C(=S)NCc1ccccc1
T/C [10]: 105 % of control | T/C [11]: 109 % of control | T/C [12]: 87 % of control

O=C1C(Cl)=C(Nc2cccc(Cl)c2)C(=O)c2ccccc21
T/C (dose: 100.0 mg/kg/injection, schedule: Q04DX002 (ip), vehicle: other): 90 % of control | T/C (dose: 200.0 mg/kg/injection, schedule: Q04DX002 (ip), vehicle: other): 94 % of control | T/C (dose: 400.0 mg/kg/injection, schedule: Q04DX002 (ip), vehicle: other): 105 % of control

CSc1nc(N)cc(=O)[nH]1
T/C (dose: 50.0 mg/kg/injection, schedule: Q01DX001 (ip), vehicle: Klucel (hydroxypropylcellulose) (HPC)): 98 % of control | T/C [16]: 96 % of control | T/C [17]: 86 % of control

CCCCS(=O)CC(CO)NC(=O)/C=C/c1c(C)[nH]c(=O)[nH]c1=O (stereo not given)
T/C (dose: 0.63 mg/kg/injection, schedule: Q01DX009 (ip), vehicle: water): 115 % of control and 105 % of control | T/C (dose: 1.25 mg/kg/injection, schedule: Q01DX009 (ip), vehicle: water): 112 % of control | T/C (dose: 2.5 mg/kg/injection, schedule: Q01DX009 (ip), vehicle: water): 118 % of control and 121 % of control | T/C (dose: 5.0 mg/kg/injection, schedule: Q01DX009 (ip), vehicle: water): 116 % of control | T/C (dose: 10.0 mg/kg/injection, schedule: Q01DX009 (ip), vehicle: water): 98 % of control

NC(CO)C(O)c1ccc(N=Nc2ccc(O)cc2)cc1 (stereo not given)
T/C [4]: 100 % of control | T/C [5]: 104 % of control | T/C [6]: 94 % of control

C=CCCCCCCCCCCC(=O)OC
T/C [6]: 106 % of control | T/C [10]: 93 % of control | T/C [7]: 106 % of control | T/C [11]: 94 % of control | T/C [8]: 101 % of control

Clc1cc(CBr)c(CBr)cc1Cl
T/C [9]: 107 % of control | T/C [4]: 97 % of control | T/C [5]: 100 % of control

CC1(C)N=C(N)N=C(N)N1c1ccc(Cl)c(C(F)(F)F)c1
T/C (dose: 25.0 mg/kg/injection, schedule: Q04DX003 (ip), vehicle: saline with Tween-80): 109 % of control | T/C (dose: 50.0 mg/kg/injection, schedule: Q04DX003 (ip), vehicle: saline with Tween-80): 124 % of control
